Experimental data reported in patent publication US10550110B2, “Tetrahydroquinoline sulfonamide derivatives as inverse agonists of retinoid-related orphan receptor gamma (ROR gamma (t))” (GALDERMA RESEARCH & DEVELOPMENT, priority 2014, dated 2020).

Biological target: T1, ROR gamma ligand-binding domain (LBD) (hRORg) (Homo sapiens, UniProt P51449)
T1 construct: expressed in transfected cells; host or cells: HG5LN (HeLa line with GAL4-responsive luciferase reporter)
T1 sequence (P51449 269-508 limits assumed): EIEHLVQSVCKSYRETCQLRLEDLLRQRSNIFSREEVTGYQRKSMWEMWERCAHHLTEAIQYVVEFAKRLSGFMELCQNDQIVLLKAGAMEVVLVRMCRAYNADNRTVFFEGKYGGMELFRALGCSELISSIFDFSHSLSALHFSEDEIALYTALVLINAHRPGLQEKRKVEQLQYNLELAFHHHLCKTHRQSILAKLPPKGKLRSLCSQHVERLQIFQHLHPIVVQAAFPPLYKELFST
Assay: GAL4-RORγ transactivation (luciferase reporter, HG5LN HeLa line)
Type: cell-based
Details: HG5LN HeLa line with GAL4 DBD fused to ROR gamma LBD, 18 hours incubation
Text: GAL4—RORγ Transactivation
The RORγ transactivation model was developed from the line HG5LN, which is a HeLa line that stably expresses a luciferase reporter gene controlled by a pentamer of the GAL4 recognition domain of yeast and of a β-globin promoter. The HG5LN line was stably transfected by the DNA-binding domain (DBD) of GAL4 fused to the ROR gamma ligand-binding domain (LBD). Molecules that inhibit the ROR gamma constitutive activity reduce the luciferase expression, thus leading to a reduction in the emitted luminescence.
The cells are seeded in 384-well plates (5000 cells in 45 μL/well of culture medium containing 10% fetal calf serum) and incubated for 4 hours at 37° C., 5% CO2. 5 μL of the test molecules (compounds described in the tables described above) are then added to each well and the plates are incubated for 18 hours at a temperature of 37° C. under 5% of CO2. 20 μL of luciferase substrate (Promega) are added to each well and the luminescence emitted is read by a microplate reader.
The luminescence units (“RLU”) are normalized by positive controls (“POS” containing a saturated concentration of N-(2,2,2-trifluoroethyl)-N-[4-[2,2,2-trifluoro-1-hydroxy-1-(trifluoromethyl)ethyl]phenyl])benzenesulfonamide and negative controls (“NEG” containing DMSO): % inhibition=((RLU-NEG)*100)/(POS-NEG). The IC50 values are calculated from a 4-parameter logistic model using the XLFit software (IDBS).

SMILES	IC50 [nM]
CCc1ccc(N(CC(C)C)S(=O)(=O)c2ccc3c(c2)C(O)CCN3C2CCNC(=O)C2)cc1 (single isomer, unassigned) [Compound 52, 4-hydroxy-1-(2-oxopiperidin-4-yl)-1,2,3,4-tetrahydroquinoline-6-sulfonic acid (4-ethylphenyl)isobutylamide]	> 1000
CCc1ccc(N(CC(C)C)S(=O)(=O)c2ccc3c(c2)C(O)CCN3[C@H](C)C2CCOCC2)cc1 (stereo partly drawn) [Compound 39, 4-hydroxy-1-[(R)-1-(tetrahydropyran-4-yl)ethyl]-1,2,3,4-tetrahydroquinoline-6-sulfonic acid (4-ethylphenyl)isobutylamide]	> 1000
CCc1ccc(N(CC(C)C)S(=O)(=O)c2ccc3c(c2)C(O)CCN3CC2CCNC(=O)C2)cc1 (stereo not drawn) [Compound 25, 4-hydroxy-1-(2-oxopiperidin-4-ylmethyl)-1,2,3,4-tetrahydroquinoline-6-sulfonic acid (4-ethylphenyl)isobutylamide]	> 1000
CCc1ccc(N(CC(C)C)S(=O)(=O)c2ccc3c(c2)C(O)CCN3Cc2ccncn2)cc1 (stereo not drawn) [Compound 21, 4-hydroxy-1-pyrimidin-4-ylmethyl-1,2,3,4-tetrahydroquinoline-6-sulfonic acid (4-ethylphenyl)isobutylamide]	< 100
CCc1ccc(N(CC(C)C)S(=O)(=O)c2ccc3c(c2)C(O)CCN3CC2CCN(S(C)(=O)=O)CC2)cc1 (stereo not drawn) [Compound 59, 4-hydroxy-1-(1-methanesulfonylpiperidin-4-ylmethyl)-1,2,3,4-tetrahydroquinoline-6-sulfonic acid (4-ethylphenyl)isobutylamide]	> 1000
CCc1ccc(N(CC(C)C)S(=O)(=O)c2ccc3c(c2)C(O)CCN3CC2CNC(=O)C2)cc1 (stereo not drawn) [Compound 26, 4-hydroxy-1-(5-oxopyrrolidin-3-ylmethyl)-1,2,3,4-tetrahydroquinoline-6-sulfonic acid (4-ethylphenyl)isobutylamide]	100 to 1000
CCc1ccc(N(CC(C)C)S(=O)(=O)c2ccc3c(c2)C(O)CCN3C2CCS(=O)(=O)CC2)cc1 (stereo not drawn) [Compound 27, 1-(1,1-dioxohexahydro-1λ^6-thiopyran-4-yl)-4-hydroxy-1,2,3,4-tetrahydroquinoline-6-sulfonic acid (4-ethylphenyl)isobutylamide]	100 to 1000
CCc1ccc(N(CC(C)C)S(=O)(=O)c2ccc3c(c2)C(=O)CCN3CC2CCNCC2)cc1 [Compound 54, 4-oxo-1-piperidin-4-ylmethyl-1,2,3,4-tetrahydroquinoline-6-sulfonic acid (4-ethylphenyl)isobutylamide]	> 1000
CCc1ccc(N(CC(C)C)S(=O)(=O)c2ccc3c(c2)C(O)CCN3Cc2nonc2C)cc1 (stereo not drawn) [Compound 32, 4-hydroxy-1-(4-methylfurazan-3-ylmethyl)-1,2,3,4-tetrahydroquinoline-6-sulfonic acid (4-ethylphenyl)isobutylamide]	100 to 1000
CCc1ccc(N(CC(C)C)S(=O)(=O)c2ccc3c(c2)C(=O)CCN3C2CCN(S(C)(=O)=O)CC2)cc1 [Compound 63, 1-(1-methanesulfonylpiperidin-4-yl)-4-oxo-1,2,3,4-tetrahydroquinoline-6-sulfonic acid (4-ethylphenyl)isobutylamide]	> 1000
CCc1ccc(N(CC(C)C)S(=O)(=O)c2ccc3c(c2)C(O)CCN3Cc2cnoc2C)cc1 (stereo not drawn) [Compound 30, 4-hydroxy-1-(5-methylisoxazol-4-ylmethyl)-1,2,3,4-tetrahydroquinoline-6-sulfonic acid (4-ethylphenyl)isobutylamide]	100 to 1000
CCc1ccc(N(CC(C)C)S(=O)(=O)c2ccc3c(c2)C(O)CCN3C2CCNCC2)cc1 (stereo not drawn) [Compound 57, 4-hydroxy-1-piperidin-4-yl-1,2,3,4-tetrahydroquinoline-6-sulfonic acid (4-ethylphenyl)isobutylamide]	> 1000
CCc1ccc(N(CC(C)C)S(=O)(=O)c2ccc3c(c2)C(O)CCN3CC2CCN(C(=O)OC)CC2)cc1 (stereo not drawn) [Compound 51, methyl ester of 4-{6-[(4-ethylphenyl)isobutylsulfamoyl]-4-hydroxy-3,4-dihydro-2H-quinolin-1-ylmethyl}piperidine-1-carboxylic acid]	> 1000
CCc1ccc(N(CC(C)C)S(=O)(=O)c2ccc3c(c2)C(O)CCN3Cc2ccc(C(=O)NO)cc2)cc1 (stereo not drawn) [Compound 47, 4-{6-[(4-ethylphenyl)isobutylsulfamoyl]-4-hydroxy-3,4-dihydro-2H-quinolin-1-ylmethyl}-N-hydroxybenzamide]	> 1000
CCc1ccc(N(CC(C)C)S(=O)(=O)c2ccc3c(c2)C(=O)CCN3C2CCN(C(C)=O)CC2)cc1 [Compound 60, 1-(1-acetylpiperidin-4-yl)-4-oxo-1,2,3,4-tetrahydroquinoline-6-sulfonic acid (4-ethylphenyl)isobutylamide]	> 1000
CCc1ccc(N(CC(C)C)S(=O)(=O)c2ccc3c(c2)C(O)CCN3C2CCN(C(=O)OC(C)(C)C)CC2)cc1 (stereo not drawn) [Compound 13, tert-butyl ester of 4-{6-[(4-ethylphenyl)isobutylsulfamoyl]-4-hydroxy-3,4-dihydro-2H-quinolin-1-yl}piperidine-1-carboxylic acid]	> 1000
CCc1ccc(N(CC(C)C)S(=O)(=O)c2ccc3c(c2)C(O)CCN3CC2CCN(C(C)=O)CC2)cc1 (stereo not drawn) [Compound 58, 1-(1-acetylpiperidin-4-ylmethyl)-4-hydroxy-1,2,3,4-tetrahydroquinoline-6-sulfonic acid (4-ethylphenyl)isobutylamide]	> 1000
CCc1ccc(N(CC(C)C)S(=O)(=O)c2ccc3c(c2)C(=O)CCN3CC2CCN(C(=O)OC(C)(C)C)CC2)cc1 [Compound 5, tert-butyl ester of 4-{6-[(4-ethylphenyl)isobutylsulfamoyl]-4-oxo-3,4-dihydro-2H-quinolin-1-ylmethyl}piperidine-1-carboxylic acid]	> 1000
CCc1ccc(N(CC(C)C)S(=O)(=O)c2ccc3c(c2)C(O)CCN3CC2(O)CCOCC2)cc1 (stereo not drawn) [Compound 16, 4-hydroxy-1-(4-hydroxytetrahydropyran-4-ylmethyl)-1,2,3,4-tetrahydroquinoline-6-sulfonic acid (4-ethylphenyl)isobutylamide]	> 1000
CCc1ccc(N(CC(C)C)S(=O)(=O)c2ccc3c(c2)C(O)CCN3CC2CC3(COC3)C2)cc1 (stereo not drawn) [Compound 44, 4-hydroxy-1-(2-oxaspiro[3.3]hept-6-ylmethyl)-1,2,3,4-tetrahydroquinoline-6-sulfonic acid (4-ethylphenyl)isobutylamide]	100 to 1000
CCc1ccc(N(CC(C)C)S(=O)(=O)c2ccc3c(c2)C(O)CCN3CC2CCS(=O)(=O)C2)cc1 (stereo not drawn) [Compound 22, 1-(1,1-dioxotetrahydro-1λ^6-thiophen-3-ylmethyl)-4-hydroxy-1,2,3,4-tetrahydroquinoline-6-sulfonic acid (4-ethylphenyl)isobutylamide]	100 to 1000
CCc1ccc(N(CC(C)C)S(=O)(=O)c2ccc3c(c2)C(O)CCN3Cc2c(C)noc2C)cc1 (stereo not drawn) [Compound 31, 1-(3,5-dimethylisoxazol-4-ylmethyl)-4-hydroxy-1,2,3,4-tetrahydroquinoline-6-sulfonic acid (4-ethylphenyl)isobutylamide]	100 to 1000
CCc1ccc(N(CC(C)C)S(=O)(=O)c2ccc3c(c2)C(O)CCN3C2CCNC(=O)C2)cc1 (single isomer, unassigned) [Compound 53, 4-hydroxy-1-(2-oxopiperidin-4-yl)-1,2,3,4-tetrahydroquinoline-6-sulfonic acid (4-ethylphenyl)isobutylamide]	> 1000
CCc1ccc(N(CC(C)C)S(=O)(=O)c2ccc3c(c2)C(O)CCN3CC2CCC(F)(F)C2)cc1 (stereo not drawn) [Compound 34, 1-(3,3-difluorocyclopentylmethyl)-4-hydroxy-1,2,3,4-tetrahydroquinoline-6-sulfonic acid (4-ethylphenyl)isobutylamide]	100 to 1000
